Laboratory results: US20050013914A1, “Method of sustaining aroma and use thereof” (priority 2001, published 2005)
Where two headings read alike, the source gives them in different places.

Columns and labels:
Type in all cases: physicochemical
[1] = Adsorption of aromatic substances on CTS crystalline anhydrate (Example C-3)
Protocol: The following explains the experimental method in detail. […] The amount of the adsorbed aromatic substances was calculated by measuring the weight of the resulting powders and subtracting their starting powder weight (4 g).

[2] = Adsorption of liquid ethanol or acetic acid on saccharide powder (Example C-1); details: until mixture did not keep a powder form; for Amount of Adsorbed Acetic Acid: acetic acid adsorbed on 1 g of saccharide; for Amount of Adsorbed Ethanol: ethanol adsorbed on 1 g of saccharide
Excerpt: CTS crystalline pentahydrate, prepared by the method described in Example B-3, CTS crystalline monohydrate, prepared by the method described in Example B-4, CTS crystalline anhydrate, prepared by the method described in Example B-5, or CTS amorphous anhydrate prepared by the method described in Example B-6, was used for preparation of aroma-retaining material. “ISOELEAT P™”, a branched cyclodextrin commercialized by Maruha corporation, Tokyo, Japan, anhydrous trehalose prepared by the method described in Japanese Patent Kokai No. 111,284/97, “PINEFIBRE™”, a dextrin commercialized by Matsutani Chemical Industries Co., Ltd., Tokyo, Japan, or soluble starch in a reagent grade commercialized by Katayama Chemical Industries, Co., Ltd., Tokyo, Japan, was dried in vacuo at 80° C. for 16 hours as control saccharides. […] The resulting mixture was weighed. The weight of ethanol or acetic acid was calculated by subtracting the pre-measured saccharide weight. The weight of ethanol or acetic acid adsorbed on 1 g of each saccharide was in Table 1.

[3] = Adsorption and 10-day retention of lavender oil, citronellol or phenethyl alcohol on saccharides (Example C-4); details: for Amount of the Adsorbed Substance: freshly prepared sample; for Relative Amount of the Retained Substance: preserved at 25° C. for 10 days vs freshly prepared
Excerpt: The following example is a test to confirm the effect of CTS crystalline hydrate, CTS crystalline anhydrate, or CTS amorphous anhydrate on retaining, as an aromatic substance, lavender oil, citronellol, or phenethyl alcohol. CTS crystalline pentahydrate prepared by the method described in Example B-3, CTS crystalline anhydrate in Example B-5, and CTS amorphous anhydrate in Example B-6 were used as the test saccharides “ISOELEAT P®”, a branched cyclodextrin commercialized by Maruha Corporation, Tokyo, Japan, was used as a control.
In the case of lavender oil, five parts by weight of each of the above saccharides were taken into a glass dish sized 90 mm in diameter and 20 mm in depth, admixed with one part by weight of lavender oil by stirring. Lavender oil was measured by the method described as follows; admixing 2 ml of diethyl ether with 1 g of each of the above samples freshly prepared or after preserved at 25° C. for 10 days; measuring the extracted lavender oil by gas chromatography using “GC-14B” (a gas chromatography commercialized by Shimazu corporation, Kyoto, Japan) equipped with “TC-Wax” (a capillary column sized 0.53 mm in diameter and 25 m in length commercialized by GL Sciences Inc., Tokyo, Japan.
In the case of citronellol or phenethyl alcohol, five parts by weight of each of the above saccharides were taken into a glass dish sized 90 mm in diameter and 20 mm in depth, admixed with one part by weight of citronellol or phenethyl alcohol, and mixed by stirring. The adsorbed citronellol or phenethyl alcohol was measured by admixing 2 ml of diethyl ether with 1 g of each of the above sample freshly prepared or after preserved at 25° C. for 10 days, and measuring the extracted lavender oil by gas chromatography using “GC-14B” (a gas chromatography device commercialized by Shimazu corporation, Kyoto, Japan) equipped with “DB-5” (a capillary column sized 0.25 mm in diameter and 30 m in length commercialized by GL Sciences Inc., Tokyo, Japan).
The amount of the retained aromatic substance in each sample was calculated using the following formula, and the results were shown in Table 4.
Formula: Relative amount of the retained Substance (%)={(an amount of aromatic substance in a sample preserved for 10 days)/(an amount of aromatic substance in a freshly prepared sample)}×100

[4] = aromatic substance adsorbed per 1 g of CTS crystalline anhydrate
[5] = citronellol, listed as Sample 3
[6] = lavender oil, listed as Sample 3
[7] = phenethyl alcohol, listed as Sample 3
[8] = citronellol, listed as Sample 1
[9] = lavender oil, listed as Sample 1
[10] = phenethyl alcohol, listed as Sample 1

| Compound | Amount of Adsorbed Substance [1, 4] | further results |
| --- | --- | --- |
| 1-Propanol | 0.46 g | – |
| 3-Methyl-1-Propanol | 0.36 g | – |
| OCCCCO [1,4-Butanediol] | – | Amount of Adsorbed Substance [1]: 0.28 g |
| CCCCCCO [1-Hexanol] | 0.41 g | – |
| CCCCCCCCO [1-Octanol] | 0.28 g | – |
| CCCCCO [1-Pentanol] | 0.31 g | – |
| NCCO [2-Aminoethanol] | 0.13 g | – |
| CC(C)CO [2-Methyl-1-Propanol] | 0.36 g | – |
| CC(C)(C)O [2-Methyl-2-Propanol] | – | Amount of Adsorbed Substance [1]: 0.32 g |
| CC(C)O [2-Propanol] | 0.48 g | – |
| OCCCc1ccccc1 [3-Phenyl-1-Propanol] | 0.52 g | – |
| CC(=O)O [Acetic Acid] | 0.47 g | – |
| C=CCN=C=S [Allylisothiocyanate] | 0.37 g | – |
| c1ccccc1 [Benzene] | 0.14 g | – |
| OCc1ccccc1 [Benzyl Alcohol] | 0.43 g | – |
| ClCc1ccccc1 [Benzyl Chloride] | 0.32 g | – |
| CCCC(=O)O [Butyric Acid] | 0.55 g | – |
| OCC1OC2OCC3O[C@H](O[C@H]4C(O)C(CO)OC(OCC5O[C@H](O[C@@H](C1O)C2O)C(O)C(O)[C@@H]5O)C4O)C(O)C(O)[C@@H]3O (some centres unmarked) [CTS amorphous anhydrate] | – | Amount of Adsorbed Acetic Acid [2]: 0.47 g; Amount of Adsorbed Ethanol [2]: 0.49 g; Adsorbing capability relative to branched cyclodextrin ([3]; citronellol): about 1.2 fold; Amount of the Adsorbed Substance ([3]; citronellol): 190 mg/g saccharide; Amount of the Adsorbed Substance [3, 5]: 190 mg/g saccharide; Relative Amount of the Retained Substance [3, 5]: 40%; Adsorbing capacity relative to branched cyclodextrin ([3]; lavender oil): about 1.3 fold; Amount of the Adsorbed Substance ([3]; lavender oil, listed as CTS amorphous anhydrte): 185 mg/g saccharide; Amount of the Adsorbed Substance [3, 6]: 185 mg/g saccharide; Relative Amount of the Retained Substance [3, 6]: 8%; Amount of the Adsorbed Substance ([3]; phenethyl alcohol): 180 mg/g saccharide; Amount of the Adsorbed Substance [3, 7]: 180 mg/g saccharide; Relative Amount of the Retained Substance [3, 7]: 12% |
| OCC1OC2OCC3O[C@H](O[C@H]4C(O)C(CO)OC(OCC5O[C@H](O[C@@H](C1O)C2O)C(O)C(O)[C@@H]5O)C4O)C(O)C(O)[C@@H]3O (some centres unmarked) [CTS crystalline monohydrate] | – | Amount of Adsorbed Acetic Acid [2]: 0.35 g; Amount of Adsorbed Ethanol [2]: 0.45 g |
| OCC1OC2OCC3O[C@H](O[C@H]4C(O)C(CO)OC(OCC5O[C@H](O[C@@H](C1O)C2O)C(O)C(O)[C@@H]5O)C4O)C(O)C(O)[C@@H]3O (some centres unmarked) [CTS crystalline pentahydrate] | – | Amount of Adsorbed Acetic Acid [2]: 0.27 g; Amount of Adsorbed Ethanol [2]: 0.32 g; Amount of the Adsorbed Substance ([3]; citronellol, listed as CTS crystalline hydrate): 155 mg/g saccharide; Amount of the Adsorbed Substance [3, 8]: 155 mg/g saccharide; Relative Amount of the Retained Substance [3, 8]: 30%; Amount of the Adsorbed Substance ([3]; lavender oil, listed as CTS crystalline hydrate): 150 mg/g saccharide; Amount of the Adsorbed Substance [3, 9]: 150 mg/g saccharide; Relative Amount of the Retained Substance [3, 9]: 1%; Amount of the Adsorbed Substance ([3]; phenethyl alcohol, listed as CTS crystalline hydrate): 140 mg/g saccharide; Amount of the Adsorbed Substance [3, 10]: 140 mg/g saccharide; Relative Amount of the Retained Substance [3, 10]: 3% |
| CCCCCC(=O)O [Capronic Acid] | 0.47 g | – |
| ClC(Cl)Cl [Chloroform] | – | Amount of Adsorbed Substance [1]: 0.32 g |
| CC(C)=CCCC(C)CC=O (centres unmarked) [Citronellal] | 0.46 g | – |
| CC(C)=CCCC(C)CCO (centres unmarked) [Citronellol] | 0.39 g | – |

| Compound | Amount of Adsorbed Substance [1, 4] | further results |
| --- | --- | --- |
| CC(=O)CC(C)(C)O [Diacetone Alcohol] | 0.28 g | – |
| CCOCC [Diethyl Ether] | – | Amount of Adsorbed Substance [1]: 0.17 g |
| CCO [Ethanol] | 0.50 g | – |
| O=CO [Formic Acid] | – | Amount of Adsorbed Substance [1]: 0.24 g |
| CC(C)=CCC/C(C)=C/CO [Geraniol] | 0.32 g | – |
| CC(C)c1cccc(=O)c(O)c1 [Hinokithiol] | 0.29 g | – |
| CC(C)C(=O)O [Isobutyric Acid] | 0.51 g | – |
| C=C(C)[C@H]1CC=C(C)CC1 [Limonene] | 0.42 g | – |
| C=CC(C)(O)CCC=C(C)C (centres unmarked) [Linalool] | 0.42 g | – |
| CO [Methanol] | – | Amount of Adsorbed Substance [1]: 0.61 g |
| CCCCCCCC(=O)O [Octanic Acid] | 0.47 g | – |
| CCCCCOC(C)=O [Pentylacetate] | 0.46 g | – |
| OCCc1ccccc1 [Phenethyl Alcohol] | 0.40 g | – |
| CCC(=O)O [Propionic Acid] | 0.50 g | – |
| CC1=CCC(O)(C(C)C)CC1 (centres unmarked) [Terpinen-4-ol] | 0.34 g | – |
| Cc1ccccc1 [Toluene] | – | Amount of Adsorbed Substance [1]: 0.29 g |
| CCCCC(=O)O [Valeric Acid] | 0.47 g | – |
| COc1ccccc1O [o-Methoxyphenol] | 0.42 g | – |
| CC(C)(C)N=C=S [t-Butylisothiocyanate] | 0.36 g | – |
| CC1=CCC2CC1C2(C)C (stereo not drawn) [α-Pinene] | 0.35 g | – |
| CC1=CC=C(C(C)C)CC1 [α-Terpinene] | 0.37 g | – |
| CC1=CCC(C(C)(C)O)CC1 (stereo not drawn) [α-Terpineol] | 0.33 g | – |
| C=C1CCC2CC1C2(C)C (stereo not drawn) [β-Pinene] | 0.30 g | – |
| Bornylacetate | 0.48 g | – |
